Measured values as given in patent US20240408093A1, “HETEROBIFUNCTIONAL COMPOUNDS AND THEIR USE IN TREATING DISEASE” (HALDA THERAPEUTICS OPCO, INC., priority 2022, published 2024).

How the values were obtained:
EGFR T790M L858R = target: T1, EGFR T790M L858R (Homo sapiens, UniProt P00533, L858R/T790M); assay: Release of effector protein ligand from heterobifunctional compounds, EGFR T790M L858R; format: biochemical; conditions: detected A1-3
T1 construct: EGFR T790M L858R (amino acids 696-1022)
Protocol: Exemplary heterobifunctional compounds were evaluated for the ability to release an effector protein ligand in the presence of KRAS G12C, BTK, or EGFR T790M L858R target proteins.
Samples for mass spectrometry for KRAS G12C, BTK, and EGFR T790M L858R were prepared as described above for the intact mass spectrometry target engagement experiment, respectively, except rather than flash-freezing, 20 μL of sample was quenched with 50 μL of 100% acetonitrile. As well, a buffer-only control was used to detect latent release of effector protein ligand analyte. Internal standard (IS) solution consisted of 200 ng/mL propranolol and 50 ng/mL diclofenac in methanol:water 1:1 (v/v). A 4-point calibration curve (calibration standard (CS)) consisting of each analyte was made at final concentrations of 3 nM, 30 nM, 300 nM, and 3000 nM. Unknown samples were diluted such that the unknown analyte concentration was in the linear range of the calibration curve.
Samples for all proteins were prepared and analyzed from the following:
Samples were further analyzed with AB Sciex Triple Quad 5500 system coupled with Shimadzu Prominence HPLC.

[1] = target: T2, full-length BTK (amino acids 1-659) (Homo sapiens, UniProt Q06187); assay: KdELECT binding assay, BTK
T2 construct: full-length BTK (amino acids 1-659); host or cells: mammalian cells (HEK-293)
T2 sequence (Q06187 whole entry, the tested form may be a part): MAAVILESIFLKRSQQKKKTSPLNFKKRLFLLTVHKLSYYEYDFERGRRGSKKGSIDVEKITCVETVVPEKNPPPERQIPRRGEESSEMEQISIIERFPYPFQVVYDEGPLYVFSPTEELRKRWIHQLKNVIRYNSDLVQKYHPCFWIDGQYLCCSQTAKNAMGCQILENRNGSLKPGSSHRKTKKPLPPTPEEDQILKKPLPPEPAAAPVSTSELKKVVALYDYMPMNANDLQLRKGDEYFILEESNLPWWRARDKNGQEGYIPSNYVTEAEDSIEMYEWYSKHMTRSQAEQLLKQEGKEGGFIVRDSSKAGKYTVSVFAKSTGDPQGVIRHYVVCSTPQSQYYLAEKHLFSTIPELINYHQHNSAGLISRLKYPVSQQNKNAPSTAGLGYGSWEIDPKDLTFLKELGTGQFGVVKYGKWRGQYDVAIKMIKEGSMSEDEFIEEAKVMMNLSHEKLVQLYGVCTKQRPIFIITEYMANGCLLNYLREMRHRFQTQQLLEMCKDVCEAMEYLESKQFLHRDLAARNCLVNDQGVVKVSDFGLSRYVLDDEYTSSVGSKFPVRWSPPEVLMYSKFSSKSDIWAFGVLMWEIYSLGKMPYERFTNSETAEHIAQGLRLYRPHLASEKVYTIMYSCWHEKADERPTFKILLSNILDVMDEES
Protocol: Exemplary compounds were tested for ability to bind to full-length BTK (amino acids 1-659; Accession Number NP_000052.1) expressed from mammalian cells. Compounds were tested using the KdELECT assay.
(§1) Kinase-tagged T7 phage strains were prepared in an E. coli host derived from the BL21 strain. E. coli were grown to log-phase and infected with T7 phage and incubated with shaking at 32° C. until lysis. The lysates were centrifuged and filtered to remove cell debris. The remaining kinases were produced in HEK-293 cells and subsequently tagged with DNA for qPCR detection. Streptavidin-coated magnetic beads were treated with biotinylated small molecule ligands for 30 minutes at room temperature to generate affinity resins for kinase assays. The liganded beads were blocked with excess biotin and washed with blocking buffer (SeaBlock (Pierce), 1% BSA, 0.05% Tween 20, 1 mM DTT) to remove unbound ligand and to reduce non-specific binding. Binding reactions were assembled by combining kinases, liganded affinity beads, and test compounds in 1× binding buffer (20% SeaBlock, 0.17× PBS, 0.05% Tween 20, 6 mM DTT). Test compounds were prepared as 111× stocks in 100% DMSO. Kd values were determined using an 11-point 3-fold compound dilution series with three DMSO control points. All compounds for Kd measurements are distributed by acoustic transfer (non-contact dispensing) in 100% DMSO. The compounds were then diluted directly into the assays such that the final concentration of DMSO was 0.9%. All reactions performed in polypropylene 384-well plate. Each was a final volume of 0.02 mL. The assay plates were incubated at room temperature with shaking for 1 hour and the affinity beads were washed with wash buffer (1× PBS, 0.05% Tween 20). The beads were then re-suspended in elution buffer (1× PBS, 0.05% Tween 20, 0.5 μM nonbiotinylated affinity ligand) and incubated at room temperature with shaking for 30 minutes. The kinase concentration in the eluates was measured by qPCR.

GSPT1 = target: T3, GSPT1 (Homo sapiens, UniProt P15170+Q96SW2); assay: GSPT1 HiBiT degradation assay; format: cell-based; conditions: HEK293 LgBiT GSPT1 HiBiT cells, 6 hours
T3 construct: host or cells: HEK293 LgBiT / GSPT1 HiBiT CRISPR knock-in
T3 sequence (P15170 whole entry): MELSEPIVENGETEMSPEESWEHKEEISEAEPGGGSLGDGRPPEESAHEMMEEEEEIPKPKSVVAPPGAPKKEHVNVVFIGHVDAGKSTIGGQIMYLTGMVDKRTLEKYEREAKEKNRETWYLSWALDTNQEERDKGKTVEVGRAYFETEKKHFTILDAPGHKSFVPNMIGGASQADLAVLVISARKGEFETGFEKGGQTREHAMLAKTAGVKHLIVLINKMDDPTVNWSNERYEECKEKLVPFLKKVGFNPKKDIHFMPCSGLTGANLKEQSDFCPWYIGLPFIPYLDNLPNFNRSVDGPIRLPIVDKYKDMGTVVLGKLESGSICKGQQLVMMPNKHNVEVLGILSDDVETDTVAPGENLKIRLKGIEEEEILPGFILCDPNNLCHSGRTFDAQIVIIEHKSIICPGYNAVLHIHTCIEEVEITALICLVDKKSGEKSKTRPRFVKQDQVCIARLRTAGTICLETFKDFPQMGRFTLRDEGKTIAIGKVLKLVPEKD
T3 sequence (Q96SW2 whole entry): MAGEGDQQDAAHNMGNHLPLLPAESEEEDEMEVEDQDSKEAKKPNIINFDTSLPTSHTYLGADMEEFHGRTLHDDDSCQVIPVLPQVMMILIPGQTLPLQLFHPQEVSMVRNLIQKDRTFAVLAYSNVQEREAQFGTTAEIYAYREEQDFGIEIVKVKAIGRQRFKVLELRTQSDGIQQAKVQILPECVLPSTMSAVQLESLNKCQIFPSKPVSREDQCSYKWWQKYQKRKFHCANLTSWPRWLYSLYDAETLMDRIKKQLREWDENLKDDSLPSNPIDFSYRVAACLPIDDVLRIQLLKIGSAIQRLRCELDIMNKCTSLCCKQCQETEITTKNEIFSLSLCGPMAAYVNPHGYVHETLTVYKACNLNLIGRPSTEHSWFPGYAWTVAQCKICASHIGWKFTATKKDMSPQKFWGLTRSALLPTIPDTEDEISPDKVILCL
T3 sequence (Q16531 whole entry partner): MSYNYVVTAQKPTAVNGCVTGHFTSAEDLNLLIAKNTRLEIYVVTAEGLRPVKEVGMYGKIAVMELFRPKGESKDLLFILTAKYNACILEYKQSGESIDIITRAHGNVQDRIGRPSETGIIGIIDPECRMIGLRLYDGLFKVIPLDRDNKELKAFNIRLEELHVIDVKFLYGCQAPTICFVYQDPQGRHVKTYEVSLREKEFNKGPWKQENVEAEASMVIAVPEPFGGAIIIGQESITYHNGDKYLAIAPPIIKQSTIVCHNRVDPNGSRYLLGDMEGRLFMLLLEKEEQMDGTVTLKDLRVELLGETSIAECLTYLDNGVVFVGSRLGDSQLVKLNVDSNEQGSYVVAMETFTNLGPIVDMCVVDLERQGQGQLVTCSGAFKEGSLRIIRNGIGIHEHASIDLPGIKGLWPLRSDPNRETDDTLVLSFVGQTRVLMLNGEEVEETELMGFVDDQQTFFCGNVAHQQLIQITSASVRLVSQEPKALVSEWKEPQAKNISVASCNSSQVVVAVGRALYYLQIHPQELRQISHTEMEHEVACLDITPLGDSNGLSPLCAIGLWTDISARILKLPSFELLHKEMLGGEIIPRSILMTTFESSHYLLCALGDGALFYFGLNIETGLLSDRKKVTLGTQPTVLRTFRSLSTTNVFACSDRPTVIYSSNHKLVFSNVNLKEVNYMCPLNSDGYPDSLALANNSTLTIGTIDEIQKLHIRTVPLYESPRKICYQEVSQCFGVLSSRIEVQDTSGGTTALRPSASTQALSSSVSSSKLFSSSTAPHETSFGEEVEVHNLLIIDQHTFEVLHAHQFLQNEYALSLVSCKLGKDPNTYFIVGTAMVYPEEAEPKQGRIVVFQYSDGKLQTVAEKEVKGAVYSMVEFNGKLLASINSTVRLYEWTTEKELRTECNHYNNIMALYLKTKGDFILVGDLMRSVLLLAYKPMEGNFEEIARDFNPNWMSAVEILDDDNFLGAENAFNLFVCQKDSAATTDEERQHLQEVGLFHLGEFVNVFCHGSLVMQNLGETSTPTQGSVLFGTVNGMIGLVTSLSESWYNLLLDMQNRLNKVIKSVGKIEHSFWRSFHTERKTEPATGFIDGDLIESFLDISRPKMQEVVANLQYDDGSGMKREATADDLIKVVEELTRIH
Summary of the method: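 HEK293 CRISPR knock-in cells expressing LgBiT and GSPT1-HiBiT were seeded at 1000 cells/well and, after 18-24 h, treated with titrated compound plus endurazine (0.5× final) at 37 °C. Luminescence read after 6 h; loss of signal reflects GSPT1 degradation, giving DC50.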

HeLa cells (ATCC CCL-2) = assay: Cellular growth inhibition assay, HeLa cells (Example 16); format: cell-based; conditions: Homo sapiens, 72 hours, CellTiter-Glo 2.0
[2] = system: HEK293 cells (ATCC CRL-1573); assay: Cellular growth inhibition assay, HEK293 cells (Example 16); format: cell-based; conditions: Homo sapiens, 72 hours, CellTiter-Glo 2.0
[3] = target: T4, EGFR T790M/L858R kinase domain (Homo sapiens, UniProt P00533, L858R/T790M); assay: EGFR cellular target engagement assay (HEK293 cells stable for EGFR T790M, L858R); format: cell-based; conditions: 6 hours, read-out: TE50 (the source's name)
T4 construct: EGFR (amino acids 696-1022, T790M, L858R); expressed in transfected cells; host or cells: HEK293, lentiviral transduction, puromycin selection
Protocol: HEK293 cells were cultured in DMEM (Gibco 11995), supplemented with 10% Heat-inactivated FBS (Gibco A38400-01) and 1% Penicillin/Streptomycin (Gibco 15140-122) at 37° C. with 5% CO2 in a humidified tissue culture incubator. Cells were made stable for EGFR (amino acids 696-1022, T790M, L858R) by lentiviral transduction, followed by selection with 1 μg/ml Puromycin Dihydrochloride (Thermo A1113803). Cells were seeded at 30,000 cells/ml in 0.1 ml of complete media in Poly-D-lysine-treated 96-well plates and incubated overnight. Cells were treated with increasing concentrations of compound and let incubate at 37C and 5% CO2 for 6 hours, after which media was aspirated, washed with 1×PBS and cells were lysed in RIPA Lysis and Extraction Buffer (Thermo 89901) supplemented with 5 mM MgCl2, Protease and Phosphatase inhibitor cocktail (Thermo 1861281), and Universal Nuclease (Thermo 88700). Plates with RIPA were shaken at 4° C. at 600 rpm for 15 min. After shaking samples, they were collected and spun down at 21,000 g for 15 min at 4° C. Following centrifugation, […] of lysate was added to Laemmli Sample Buffer (Bio-Rad 1610747) plus 10% beta-mercaptoethanol, boiled for 15 minutes at 65° C. and loaded onto 4-20% Mini-PROTEAN TGX™ Precast Protein Gels (Bio-Rad). Protein was transferred to a nitrocellulose membrane (Thermo LC2000) using the iBlot 2 Dry Blotting System (Thermo). After transfer, membranes were washed in 1× TBST (Bioland Scientific LLC TBST0103) 3× for 5 min. Following the wash, blocking buffer (Rockland MB-070) was added for 1 hour at room temperature. Primary antibodies against EGFR (Cell Signaling Technology 3197) and actin (Cell Signaling Technology 3700S) were added overnight at 4° C. Membranes were then washed again 3× for 5 min in 1× TBST. Secondary antibodies (LI-COR 926-68072 and 926-68073) were added and shaken for 1 hr at room temperature. Membranes were then washed 3× for 5 min in 1×TBST and developed. Membranes were placed on an Odyssey imager (LI-COR).

CCNK = target: T5, CCNK (Homo sapiens, UniProt O75909+Q16531+Q9NYV4); assay: CCNK HiBiT degradation assay; format: cell-based; conditions: HEK293 LgBiT/CCNK HiBiT cells, 6 hours
T5 construct: expressed in transfected cells; host or cells: HEK293 LgBiT cells (Promega), lentiviral transduction, puromycin selection
T5 sequence (O75909 whole entry, species assumed): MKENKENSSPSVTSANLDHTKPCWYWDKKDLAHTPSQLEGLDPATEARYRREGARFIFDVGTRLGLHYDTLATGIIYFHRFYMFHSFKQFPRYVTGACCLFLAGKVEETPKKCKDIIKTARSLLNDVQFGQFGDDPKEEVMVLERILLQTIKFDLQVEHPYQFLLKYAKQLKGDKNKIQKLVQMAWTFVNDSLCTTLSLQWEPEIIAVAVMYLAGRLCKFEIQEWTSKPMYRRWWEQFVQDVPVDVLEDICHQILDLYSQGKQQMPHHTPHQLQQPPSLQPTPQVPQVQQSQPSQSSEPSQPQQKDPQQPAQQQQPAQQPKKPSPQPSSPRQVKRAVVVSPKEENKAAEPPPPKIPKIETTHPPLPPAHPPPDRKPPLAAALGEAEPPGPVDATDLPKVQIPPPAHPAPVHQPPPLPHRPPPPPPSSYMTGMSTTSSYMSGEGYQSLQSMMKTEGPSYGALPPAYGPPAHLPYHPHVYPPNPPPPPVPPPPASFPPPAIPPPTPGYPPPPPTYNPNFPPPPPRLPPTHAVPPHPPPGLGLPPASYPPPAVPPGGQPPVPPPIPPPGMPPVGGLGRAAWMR
T5 sequence (Q9NYV4 whole entry, species assumed): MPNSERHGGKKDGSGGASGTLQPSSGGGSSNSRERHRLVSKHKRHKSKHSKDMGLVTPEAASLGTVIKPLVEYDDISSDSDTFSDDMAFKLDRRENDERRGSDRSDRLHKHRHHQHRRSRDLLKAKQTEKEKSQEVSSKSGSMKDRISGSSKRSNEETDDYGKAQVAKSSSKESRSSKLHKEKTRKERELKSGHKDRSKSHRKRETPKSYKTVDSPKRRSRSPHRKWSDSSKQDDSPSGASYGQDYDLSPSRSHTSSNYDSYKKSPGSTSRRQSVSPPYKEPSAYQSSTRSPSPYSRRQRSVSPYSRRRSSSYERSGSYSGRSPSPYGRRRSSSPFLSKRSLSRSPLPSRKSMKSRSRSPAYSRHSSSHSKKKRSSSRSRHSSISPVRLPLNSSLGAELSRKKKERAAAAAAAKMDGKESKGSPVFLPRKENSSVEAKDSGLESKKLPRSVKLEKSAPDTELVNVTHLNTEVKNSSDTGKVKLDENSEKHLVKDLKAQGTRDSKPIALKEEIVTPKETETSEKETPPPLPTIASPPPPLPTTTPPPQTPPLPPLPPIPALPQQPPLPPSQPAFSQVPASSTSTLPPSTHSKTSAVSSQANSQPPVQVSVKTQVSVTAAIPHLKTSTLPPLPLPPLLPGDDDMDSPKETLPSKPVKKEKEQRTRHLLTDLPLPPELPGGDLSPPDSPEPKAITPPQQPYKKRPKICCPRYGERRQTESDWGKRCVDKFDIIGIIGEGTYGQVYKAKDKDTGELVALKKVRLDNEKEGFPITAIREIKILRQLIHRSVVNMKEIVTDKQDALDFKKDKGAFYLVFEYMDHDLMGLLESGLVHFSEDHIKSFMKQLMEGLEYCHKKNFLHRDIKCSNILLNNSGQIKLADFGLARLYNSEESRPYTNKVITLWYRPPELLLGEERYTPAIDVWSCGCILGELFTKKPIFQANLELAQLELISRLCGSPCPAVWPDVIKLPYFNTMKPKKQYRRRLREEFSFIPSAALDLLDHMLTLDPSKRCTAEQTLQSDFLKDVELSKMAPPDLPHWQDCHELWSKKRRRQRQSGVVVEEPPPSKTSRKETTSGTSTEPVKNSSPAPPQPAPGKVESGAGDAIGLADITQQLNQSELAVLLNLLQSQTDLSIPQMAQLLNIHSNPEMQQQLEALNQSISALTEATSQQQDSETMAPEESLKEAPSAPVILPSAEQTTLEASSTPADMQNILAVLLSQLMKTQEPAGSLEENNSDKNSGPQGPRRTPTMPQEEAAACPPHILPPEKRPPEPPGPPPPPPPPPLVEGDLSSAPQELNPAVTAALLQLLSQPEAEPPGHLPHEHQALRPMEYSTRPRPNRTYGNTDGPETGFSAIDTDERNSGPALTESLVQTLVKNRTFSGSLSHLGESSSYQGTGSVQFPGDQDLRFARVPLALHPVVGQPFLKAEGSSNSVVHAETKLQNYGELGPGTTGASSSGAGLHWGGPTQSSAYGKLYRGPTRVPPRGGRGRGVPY
T5 sequence (Q16531 whole entry, species assumed): as the sequence (Q16531 whole entry partner) above
Protocol: HEK293 LgBiT cells (Promega) were cultured in DMEM (Gibco 11995), supplemented with 10% Heat-inactivated FBS (Gibco A38400-01) and 1% Penicillin/Streptomycin (Gibco 15140-122) and 200 μg/ml Hygromycin B (Gibco 10-687-010) at 37° C. with 5% CO2 in a humidified tissue culture incubator. Cells were made stable for CCNK fused to a C-terminal HiBiT peptide by lentiviral transduction, followed by selection with 1 μg/ml Puromycin Dihydrochloride (Thermo A1113803). HEK293 LgBiT/CCNK HiBiT cells were seeded at 3000 cells/well in 384-well, tissue culture-treated white plates (Perkin Elmer 6007680) in 25 μL media lacking selection for 18-24 hours. Plates were spun at 300 g for 30 seconds and stored in the incubator overnight. After 24 hours, compounds were titrated in DMSO and added to media supplemented with Endurazine Substrate (Promega N2570). A 25 ul aliquot of 2× compound/endurazine in media were then added to the 384-well microplate with seeded cells. (Endurazine was used at a final concentration of 0.5×). The plate was spun at 300 g for 30 seconds and stored in the incubator. After 6 hours the plate was read on Envision MultiMode Plate Reader 2105 (Perkin Elmer) to measure luminescence signal. Data were plotted in Prism (Graphpad) and the concentration of compound at which 50% CCNK degradation occurs (DC50) was calculated.

[4] = target: T6, EGFR T790M, L858R (amino acids 669-1011) (Homo sapiens, UniProt P00533, L858R/T790M); assay: KdELECT binding assay, EGFR T790M, L858R
T6 construct: purchased Eurofins Discovery (KdELECT); host or cells: mammalian cells (HEK-293)
Protocol: (§2) Exemplary compounds were tested for ability to bind to EGFR WT (amino acids 669-1011, Accession Number NP_005219.2) or EGFR T790M, L858R (amino acids 669-1011 Accession Number NP_005219.2) expressed from bacteria or mammalian cells, respectively. Compounds were tested using the KdELECT assay at Eurofins Discovery.
as §1, with “in 1x” for “in 1×”

[5] = target: T7, EGFR WT (amino acids 669-1011) (Homo sapiens, UniProt P00533); assay: KdELECT binding assay, EGFR WT
T7 construct: purchased Eurofins Discovery (KdELECT); host or cells: bacteria (E. coli BL21-derived, T7 phage)
Protocol: as §2
as §1, with “in 1x” for “in 1×”

## C=C(Cn1cc(CNc2cc(N3CCCC[C@H]3CCO)nc3c(CC)cnn23)ccc1=O)C(=O)N[C@@H]1CN(c2nc(Nc3cn(C)nc3OC)c3ncn(C)c3n2)C[C@H]1F [Compound A1-8]
EGFR T790M L858R; Buffer + Protein (EGFR T790M L858R), Time 0 h
  Concentration of Effector Protein Ligand: 0.889 µM
EGFR T790M L858R; Buffer + Protein (EGFR T790M L858R), Time 2 h
  Concentration of Effector Protein Ligand: 5.18 µM
EGFR T790M L858R; Buffer + Protein (EGFR T790M L858R), Time 8 h
  Concentration of Effector Protein Ligand: 6.91 µM
EGFR T790M L858R; Buffer + Protein (EGFR T790M L858R), Time 24 h
  Concentration of Effector Protein Ligand: 9.11 µM
EGFR T790M L858R; Buffer, Time 0 h
  Concentration of Effector Protein Ligand: 0.894 µM
EGFR T790M L858R; Buffer, Time 2 h
  Concentration of Effector Protein Ligand: 4.06 µM
EGFR T790M L858R; Buffer, Time 8 h
  Concentration of Effector Protein Ligand: 7.24 µM
EGFR T790M L858R; Buffer, Time 24 h
  Concentration of Effector Protein Ligand: 8.26 µM

## C=C(CN1C(=O)CCC(N2Cc3cc(CNC(=O)Nc4ccc(C)c(Cl)c4)ccc3C2=O)C1=O)C(=O)N1CCC[C@@H](n2nc(-c3ccc(Oc4ccccc4)cc3)c3c(N)ncnc32)C1 (stereo partly drawn) [Compound I-3, 1-[[2-[1-[2-[(3R)-3-[4-amino-3-(4-phenoxyphenyl)pyrazolo[3,4-d]pyrimidin-1-yl]piperidine-1-carbonyl]allyl]-2,6-dioxo-3-piperidyl]-1-oxo-isoindolin-5-yl]methyl]-3-(3-chloro-4-methyl-phenyl)urea]
[1]
  Kd: 0.5 to 2.5 µM
GSPT1
  DC50: > 2.5 µM

## C=C(CN(Cc1ccc2c(c1)CN(C1CCC(=O)NC1=O)C2=O)C(=O)Nc1ccc(C)c(Cl)c1)C(=O)N1CCC[C@@H](n2nc(-c3ccc(Oc4ccccc4)cc3)c3c(N)ncnc32)C1 (stereo partly drawn) [Compound I-31]
[1]
  Kd: 0.5 to 2.5 µM
GSPT1
  DC50: > 2.5 µM
HeLa cells (ATCC CCL-2)
  GI50: > 10 µM
[2]
  GI50: > 10 µM

## C=C(CN(C(=O)NCc1ccc2c(c1)CN(C1CCC(=O)NC1=O)C2=O)c1ccc(C(F)(F)F)c(Cl)c1)C(=O)N1CCC[C@@H](n2nc(-c3ccc(Oc4ccccc4)cc3)c3c(N)ncnc32)C1 (stereo partly drawn) [Compound I-38]
[1]
  Kd: 0.5 to 2.5 µM
GSPT1
  DC50: > 2.5 µM
HeLa cells (ATCC CCL-2)
  GI50: > 10 µM
[2]
  GI50: > 10 µM

## C=C(COc1ccc(Cl)cc1NC(=O)NCc1ccc2c(c1)CN(C1CCC(=O)NC1=O)C2=O)C(=O)N1CCC[C@@H](n2nc(-c3ccc(Oc4ccccc4)cc3)c3c(N)ncnc32)C1 (stereo partly drawn) [I-32]
[1]
  Kd: 0.05 to 0.5 µM
HeLa cells (ATCC CCL-2)
  GI50: 0.5 to 1.5 µM
[2]
  GI50: 0.5 to 1.5 µM

## C=C(COC(=O)N1CCN(c2nc(NCc3nc4cc(C)ccc4[nH]3)n3ncc(Br)c3n2)CC1)C(=O)N[C@@H]1CN(c2nc(Nc3cn(C)nc3OC)c3ncn(C)c3n2)C[C@H]1F [II-184]
[3]
  EC50: 0.25 to 5 µM
CCNK
  DC50: < 0.25 µM
[4]
  Kd: 0.05 to 0.5 µM
HeLa cells (ATCC CCL-2)
  GI50: < 0.5 µM
[2]
  GI50: < 0.5 µM
[5]
  Kd: 0.05 to 0.5 µM
